Assay results from ChEMBL document CHEMBL5375989, “Pioneering 4,11-Dioxo-4,11-dihydro-1H-anthra[2,3-d]imidazol-3-ium Compounds as Promising Survivin Inhibitors by Targeting ILF3/NF110 for Cancer Therapy” (J Med Chem, 2023).

Experiments:
[1] = Selectivity index, ratio of IC50 for mouse L929 cells to IC50 for human A549 cells; assay type: toxicity; conditions: for selectivity ratio: L929 cells and A549 cells, read-out: Ratio IC50
[2] = tested on: L929; assay: (§1) Antiproliferative activity against mouse L929 cells assessed as inhibition of cell growth measured after 48 hrs by MTT assay; assay type: toxicity, cell-based; conditions: l929
[3] = tested on: A549
Description: (§2) Antiproliferative activity against human A549 cells assessed as inhibition of cell growth measured after 48 hrs by MTT assay

[4] = tested on: TE-1; assay: cells; conditions: Homo sapiens, TE-1, 48 h
Description: Antiproliferative activity against human TE-1 cells assessed as inhibition of cell growth measured after 48 hrs by MTT assay

[5] = tested on: 5637; assay: cells; conditions: Homo sapiens, 5637, 48 h
Description: Antiproliferative activity against human 5637 cells assessed as inhibition of cell growth measured after 48 hrs by MTT assay

[6] = as §1; assay type: toxicity, cell-based; conditions: mouse, L929 cells
[7] = tested on: A549; assay: cells; conditions: Homo sapiens, A549, 48 h
Description: as §2

SMILES | IC50 [3] [nM] | IC50 [4] [nM] | IC50 [5] [nM] | IC50 [7] [nM] | Ratio IC50 [1] | IC50 [2] [nM] | IC50 at 48 h [6] [nM] | selectivity ratio [1]
Cn1c[n+](C)c2c1C(=O)c1ccccc1C2=O.O=S(=O)([O-])C(F)(F)F | 70 | – | – | – | 28.6 | 2000 | – | –
CC(C)CCn1c[n+](C)c2c1C(=O)c1cc3ccccc3cc1C2=O | – | 910 | 1780 | 9300 | – | – | > 16400 | –
Cc1ccc(S(=O)(=O)[O-])cc1.Cn1c[n+](C)c2c1C(=O)c1ccccc1C2=O | 280 | – | – | – | 1.9 | 540 | – | –
CC(C)n1c[n+](C(C)C)c2c1C(=O)c1ccccc1C2=O | – | – | – | 630 | – | – | 18600 | 29.5
CC1=C(C)C(=O)c2c(n(C)c[n+]2C)C1=O | – | – | – | 32100 | – | – | 119000 | 3.7
CCC(C)Cn1c[n+](C)c2c1C(=O)c1cc3ccccc3cc1C2=O (centres undefined) | – | 700 | 1510 | 8400 | – | – | 83900 | –
Cn1c[n+](C)c2c1C(=O)c1ccccc1C2=O.[I-] | 30 | – | – | – | 117 | 3520 | – | –
Cn1c2c([n+](C)c1-c1ccccc1F)C(=O)c1cc3ccccc3cc1C2=O | – | – | – | 850 | – | – | 10700 | 13
Cc1n(Cc2ccccc2)c2c([n+]1C)C(=O)c1cc3ccccc3cc1C2=O | – | 520 | 780 | 880 | – | – | 30600 | –
Cn1c2c([n+](C)c1-c1ccco1)C(=O)c1ccccc1C2=O | – | – | – | 680 | – | – | 7000 | 10
CCCCn1c[n+](C)c2c1C(=O)c1cc3ccccc3cc1C2=O | – | 59000 | 590 | 670 | – | – | 65100 | –
CCn1c[n+](CC)c2ccccc21 | – | – | – | > 100000 | – | – | > 200000 | < 10
C[n+]1cn(Cc2cccc(F)c2)c2c1C(=O)c1cc3ccccc3cc1C2=O | – | 270 | 550 | 910 | – | – | 22800 | –
CCCn1c2c([n+](C)c1C)C(=O)c1cc3ccccc3cc1C2=O | – | 380 | 580 | 1220 | – | – | 22100 | –

Continued, in another order:

IC50 [3] [nM] | IC50 [4] [nM] | IC50 [5] [nM] | IC50 [7] [nM] | SMILES | Ratio IC50 [1] | IC50 [2] [nM] | IC50 at 48 h [6] [nM] | selectivity ratio [1]
– | 70 | 180 | 210 | COCCOCCn1c[n+](C)c2c1C(=O)c1cc3ccccc3cc1C2=O | – | – | > 100000 | –
– | 80 | 410 | 60 | Cc1n(CC(C)C)c2c([n+]1C)C(=O)c1cc3ccccc3cc1C2=O | – | – | 15400 | –
– | – | – | 90 | Cn1c2c([n+](C)c1-c1ccco1)C(=O)c1cc3ccccc3cc1C2=O | – | – | 8900 | 99
– | 550 | 530 | 460 | Cc1n(Cc2ccccc2F)c2c([n+]1C)C(=O)c1cc3ccccc3cc1C2=O | – | – | 12600 | –
– | 670 | 720 | 460 | Cc1n(CC#N)c2c([n+]1C)C(=O)c1cc3ccccc3cc1C2=O | – | – | 9570 | –
– | 230 | 1650 | 320 | Cc1n(CC2OCCO2)c2c([n+]1C)C(=O)c1cc3ccccc3cc1C2=O | – | – | 79900 | –
– | – | – | 40 | Cn1c[n+](C)c2c1C(=O)c1cccc([N+](=O)[O-])c1C2=O | – | – | 17500 | 438
– | 110 | 410 | 490 | C[n+]1cn(Cc2ccccc2)c2c1C(=O)c1cc3ccccc3cc1C2=O | – | – | 37100 | –
– | 680 | 1360 | 370 | CCC(C)Cn1c2c([n+](C)c1C)C(=O)c1cc3ccccc3cc1C2=O (centres undefined) | – | – | 43500 | –
– | 420 | 880 | 70 | CCn1c2c([n+](CC)c1C)C(=O)c1cc3ccccc3cc1C2=O | – | – | 33800 | –
– | 390 | 1710 | 250 | C#CCn1c2c([n+](C)c1C)C(=O)c1cc3ccccc3cc1C2=O | – | – | 23800 | –
– | 180 | 520 | 260 | CCn1c[n+](CC)c2c1C(=O)c1cc3ccccc3cc1C2=O | – | – | 63900 | –
– | 420 | 750 | 450 | CC(C)n1c[n+](C)c2c1C(=O)c1cc3ccccc3cc1C2=O | – | – | 84000 | –
– | – | – | 80 | Cn1c2c([n+](C)c1C1CC1)C(=O)c1cc3ccccc3cc1C2=O | – | – | 15400 | 171
– | – | – | 610 | COCCn1c[n+](CCOC)c2c1C(=O)c1ccccc1C2=O | – | – | 9900 | 16.2
